In patent US5116863A, “Dibenz[b,e]oxepin derivative and pharmaceutical compositions thereof” (Kyowa Hakko Kogyo Co., Ltd., priority 1986, dated 1992):

How the values were obtained:
[1] = test system: homologous PCA (passive cutaneous anaphlaxis) of rats; assay: Homologous PCA (passive cutaneous anaphylaxis) test of rats for 48 hours, oral (antiallergic activity); type: in vivo, Wistar male rats; conditions: for minimal effective dose: read-out: MED (minimum effective dosage), PCA inhibition; for responders at 0.001 mg/kg: dosage 0.001 mg/kg, read-out: Number of positive zooids in one group of 3 zooids
Description: Antiallergic activity was investigated by a homologous PCA (passive cutaneous anaphlaxis) of rats for 48 hours, where Wistar male rats having body weights of 180 to 220 g were used for sampling of antiserum and Wistar male rats having body weights of 120 to 140 g were used for the PCA test.
Anti-egg white albumin (EWA) rat serum was prepared according to Stotland and Share's method [Canad. J. Physiol. Pharmacol. 52, 1114 (1974)]. That is, 1 mg of EWA was mixed with 20 mg of aluminum hydroxide gel and 0.5 ml of mixed vaccine of pertussis, diphtheria and tetanus, and the mixture was subcutaneously administered in four portions into rat's footpad. After 14 days, blood was sampled from the carotid artery, and the serum was separated from the sampled blood, and preserved under freezing at -80° C. The potency of the antiserumin in the homologous PCA for 48 hours was 1:32.
Groups each consisting of 3 rats were used, and 0.05 ml of anti-EWA rat serum diluted with a physiological saline solution to 8 times as much was incutaneously injected each at two positions of depilated back to make the animals passively sensitised. After 47 hours, the compound of the present invention, or its solution (physiological saline solution or CMC solution) was orally administered. One hour thereafter, 0.5 ml/100 g of 1% Evan's blue physiological saline solution containing 2 mg of the antigen EWA was administered into the tail vein, and 30 minutes thereafter, the animals were sacrificed by exsanguination. Then, the skins were stripped and the amount of leaked pigment at the blue-dyed parts was measured according to the Katayama et al method [Microbiol. Immunol. 22, 89 (1978)]. That is, the blue-dyed parts were cut out by scissors, and placed in test tubes containing 1 ml of 1N KOH and incubated at 37° C. for 24 hours. Then, 9 ml of a mixture of 0.6N phosphoric acid and acetone (5:13) was added thereto, and the mixture was shaked and centrifuged at 2,500 rpm for 10 minutes. Absorbancy of the supernatant at […] was measured, and the amount of leaked pigment was quantitatively determined by the calibration curve prepared in advance. An average of measurements at the two position was made a value for one zooid, and inhibition rate for the individual zooid was calculated by the following formula: [formula]

dd, male mice = type: in vivo; conditions: mice, mortality 7 days after administration
Description: Groups each consisting of 3 dd, male mice having body weights of 20±1 g were used, and the compound of the present invention was administered orally (po: 300 mg/kg) or intraperitoneally (ip: 100 mg/kg).

Rat carageenin paw edema = assay: Carageenin paw edema test (antiinflammatory activity); type: in vivo, Wistar male rats; conditions: average value in one group of 3 rats, 100 mg/kg oral administration
Description: Antiinflammatory activity was examined according to Rat carageenin paw edema [J. Pathol. 104, 15-29 (1971)], Groups each consisting of three Wistar male rats weighing 150 g were used. The test compound was suspended in 0.3% aqueous CMC solution and the suspension was given orally. Sixty minutes later, 0.1 ml of 0.1% carageenin was subcutaneously injected in a hind paw to form carageenin paw edema.
The volume of paw was measured before the administration and 3 hours after the administration of carageenin with plethysmometer.
The ratio of the volume 3 hours after the administration to that before the administration of carageenin was calculated and each ratio is compared with the ratio of control group (0.3% CMC was administered) to give the edema inhibiting percentage.

[2] = Rattus norvegicus, minimum dosage with positive case in at least one of three rats
[3] = Rattus norvegicus, po, dosage 1 mg/kg, positive = inhibition rate 50% or higher, read-out: Number of positive zooids in one group of 3 zooids (converted)
[4] = Rattus norvegicus, po, dosage 10 mg/kg, positive = inhibition rate 50% or higher, read-out: Number of positive zooids in one group of 3 zooids (converted)
[5] = Rattus norvegicus, po, dosage 100 mg/kg, positive = inhibition rate 50% or higher, read-out: Number of positive zooids in one group of 3 zooids (converted)
[6] = Rattus norvegicus, po, dosage 0.1 mg/kg, positive = inhibition rate 50% or higher, read-out: Number of positive zooids in one group of 3 zooids (converted)
[7] = Rattus norvegicus, po, positive = inhibition rate 50% or higher

SMILES | minimal effective dose [1, 2] [mg/kg] | responders at 1 mg/kg [1, 3] [%] | responders at 10 mg/kg [1, 4] [%] | responders at 100 mg/kg [1, 5] [%] | Acute toxicity (MLD), ip (dd, male mice) [mg/kg] | Acute toxicity (MLD), po (dd, male mice) [mg/kg] | Carageenin paw edema inhibiting percentage (Rat carageenin paw edema) [%] | responders at 0.1 mg/kg [1, 6] [%] | responders at 0.001 mg/kg [1, 7] [%] | responders at 0.01 mg/kg ([1]; Rattus norvegicus, po, dosage 0.01 mg/kg, positive = inhibition rate 50% or higher, read-out: Number of positive zooids in one group of 3 zooids (converted)) [%] | Number of positive zooids in one group of 3 zooids ([1]; dosage 0.01 mg/kg, positive = inhibition rate 50% or higher) | Number of positive zooids in one group of 3 zooids ([1]; dosage 0.1 mg/kg, positive = inhibition rate 50% or higher) | Number of positive zooids in one group of 3 zooids ([1]; dosage 1 mg/kg, positive = inhibition rate 50% or higher) | Number of positive zooids in one group of 3 zooids ([1]; dosage 10 mg/kg, positive = inhibition rate 50% or higher) | Number of positive zooids in one group of 3 zooids ([1]; dosage 100 mg/kg, positive = inhibition rate 50% or higher) | MED (minimum effective dosage), PCA inhibition ([1]; minimum dosage with positive case in at least one of three rats) [mg/kg]
CN(C)CCN=C1c2ccccc2COc2ccc(CC(=O)O)cc21 [Compound 37, 11-(2-Dimethylaminoethyl)imino-6,11-dihydrodibenz[b,e]oxepin-2-acetic acid] | 10 | 0 | 100 | 100 | > 100 | > 300 | 51.6 |  |  |  |  |  |  |  |  | 
CC(C(=O)O)c1ccc2c(c1)C(=NCCN(C)C)c1ccccc1CO2 (centres unmarked) [Compound 45, 2-[11-(2-Dimethylaminoethyl)imino-6,11-dihydrodibenz[b,e]oxepin-2-yl]-propionic acid] | 1 | 66.7 | 100 | 100 | > 100 | > 300 | 63.1 | 0 |  |  |  |  |  |  |  | 
CN(C)CCCN=C1c2ccccc2COc2cc(CC(=O)O)ccc21 [Compound 49, 11-(3-Dimethylaminopropyl)imino-6,11-dihydrodibenz[b,e]oxepin-3-acetic acid] |  |  |  |  |  |  | 24.1 |  |  |  |  |  |  |  |  | 
CN(C)CC/C=C1/c2ccccc2COc2ccc(CC(=O)O)cc21 [Compound 20 (cis), Cis-11-(3-dimethylaminopropylidene)-6,11-dihydrodibenz[b,e]oxepin-2-acetic acid] | 0.01 | 100 | 100 | 100 | > 100 | > 300 |  | 100 | 0 | 33.3 |  |  |  |  |  | 
CN(C)CCCN=C1c2ccccc2COc2ccc(CC(=O)O)cc21 [Compound 41, 11-(3-Dimethylaminopropyl)imino-6,11-dihydrodibenz[b,e]oxepin-2-acetic acid] | 1 | 33.3 | 66.7 | 100 | > 100 | > 300 | 38.7 | 0 |  |  |  |  |  |  |  | 
CCN(CC)CCN=C1c2ccccc2COc2ccc(CC(=O)O)cc21 [Compound 39, 11-(2-Diethylaminoethyl)imino-6,11-dihydrodibenz[b,e]oxepin-2-acetic acid] | 1 | 100 | 66.7 | 100 | > 100 | > 300 | 50.2 | 0 |  |  |  |  |  |  |  | 
CN(C)CC/C=C1\c2ccccc2COc2ccc(CC(=O)O)cc21 [Compound 20 (trans), Trans-11-(3-dimethylaminopropylidene)-6,11-dihydrodibenz[b,e]oxepin-2-acetic acid] |  |  |  |  | > 100 | > 300 |  |  | 0 |  | 0/3 | 3/3 | 3/3 | 2/3 | 2/3 | 0.1
